Source: US20150010928A1, “MEANS AND METHODS FOR ASSESSING AN ENDOCRINE DISEASE OR DISORDER” (priority 2012, published 2015)
Marks after values point to notes of the source that are not given here.

System: male rats
Test: Plasma metabolite profiling (GC-MS, LC-MS, SPE-LC-MS) in male rats dosed once daily over 28 days (OECD 407)
Assay type: in vivo, rat
Settings: high dose; for Alanine, ratio versus control / Androstenedione, ratio versus control / Cholesterol, ratio versus control / Glycine, ratio versus control / Heptadecanoic acid (C17:0), ratio versus control / Testosterone, ratio versus control / Threonine, ratio versus control / Uric acid, ratio versus control / alpha-Tocopherol, ratio versus control: male rats, plasma
Description: Each dose group in the studies consisted of five rats per sex. Additional groups of each 5 male and female animals served as controls. […] All animals of the animal population were kept under the same constant temperature (20-24±3° C.) and the same constant humidity (30-70%). The animals of the animal population were fed ad libitum. The food to be used was essentially free of chemical or microbial contaminants. Drinking water was also offered ad libitum. Accordingly, the water was free of chemical and microbial contaminants as laid down in the European Drinking Water Directive 98/83/EG. The illumination period was 12 hours light followed by 12 hours darkness (12 hours light, from 6:00 to 18:00, and 12 hours darkness, from 18:00 to 6:00). […] The test substances (compounds) in the Tables 1 to 17 below were dosed and administered as described in the Table 18.
In the morning of day 7, 14, and 28, blood was taken from the retroorbital venous plexus from fasted anaesthetized animals. From each animal, 1 ml of blood was collected with EDTA as anticoagulant. The samples were centrifuged for generation of plasma. All plasma samples were covered with a N2 atmosphere and then stored at −80° C. until analysis.
For mass spectrometry-based metabolite profiling analyses plasma samples were extracted and a polar and a non-polar (lipid) fraction was obtained. For GC-MS analysis, the non-polar fraction was treated with methanol under acidic conditions to yield the fatty acid methyl esters. Both fractions were further derivatised with O-methyl-hydroxyamine hydrochloride and pyridine to convert Oxogroups to O-methyloximes and subsequently with a silylating agent before analysis. In LC-MS analysis, both fractions were reconstituted in appropriate solvent mixtures. HPLC was performed by gradient elution on reversed phase separation columns. Mass spectrometric detection which allows target and high sensitivity MRM (Multiple Reaction Monitoring) profiling in parallel to a full screen analysis was applied as described in WO2003073464.
Steroids and their metabolites were measured by online SPE-LC-MS (Solid phase extraction-LC-MS).
Following comprehensive analytical validation steps, the data for each analyte were normalized against data from pool samples. These samples were run in parallel through the whole process to account for process variability. The significance of treatment group values specific for sex, treatmentduration and metabolite was determined by comparing means of the treated groups to the means of the respective untreated control groups using WELCH-test and quantified with treatment ratios versus control and p-values.
The identification of the most important biomarkers per toxicity pattern was done by a ranking of the analytes in the tables below. Therefore the metabolic changes in reference treatments of a given pattern (shown in the table) were compared with changes of the same metabolite in other unrelated treatments. […] The maximum absolute value of the respective TVALUE was taken to indicate the most important metabolite for the pattern.

## C#C[C@]1(O)CC[C@H]2[C@@H]3CCc4cc(O)ccc4[C@H]3CC[C@@]21C [17-alpha-Ethynylestradiol]
m7, Table 14b
  Cholesterol: 0.19
  Choline plasmalogen No 02: 0.28
  Lignoceric acid (C24:0): 0.2
  Sphingomyelin (d18:1, C16:0): 0.2
  Sphingomyelin (d18:2, C16:0): 0.19
  erythro-Sphingosine (d18:1): 0.09
m7, Table 12d
  3,4-Dihydroxyphenylacetic acid (DOPAC): 1.01
  Choline plasmalogen No 02: 0.28 *
  Choline plasmalogen No 03: 0.41 *
  Coenzyme Q10: 0.16 *
  Elaidic acid (C18:trans[9]1): 0.54 *
  Glycerol phosphate, lipid fraction: 0.22 *
  Glycerol, polar fraction: 0.68 *
  Lysophosphatidylcholine (C17:0): 0.38 *
  Lysophosphatidylcholine (C18:0): 0.77 *
  Lysophosphatidylcholine (C20:4): 0.78 *
  Lysophosphatidylethanolamine (C22:0): 0.28 *
  Phosphatidylcholine (C18:0, C20:3): 0.21 *
  Phosphatidylcholine No 04: 0.17 *
  Sphingomyelin (d18:1, C16:0): 0.32 *
  Sphingomyelin (d18:2, C16:0): 0.19 *
  Sphingomyelin (d18:2,C18:0): 0.24 *
  Threonic acid: 0.47 *
  Tyrosine: 1.09
  beta-Sitosterol: 0.3 *
  myo-Inositol, lipid fraction: 0.22 *
m14, Table 14b
  Cholesterol: 0.24
  Choline plasmalogen No 02: 0.46
  Lignoceric acid (C24:0): 0.21
  Sphingomyelin (d18:1, C16:0): 0.37
  Sphingomyelin (d18:2, C16:0): 0.24
  erythro-Sphingosine (d18:1): 0.13
m14, Table 12d
  3,4-Dihydroxyphenylacetic acid (DOPAC): 0.58 *
  Choline plasmalogen No 02: 0.46 *
  Choline plasmalogen No 03: 0.43 *
  Coenzyme Q10: 0.31 *
  Elaidic acid (C18:trans[9]1): 0.63 *
  Glycerol phosphate, lipid fraction: 0.31 *
  Glycerol, polar fraction: 0.84
  Lysophosphatidylcholine (C17:0): 0.58 *
  Lysophosphatidylcholine (C18:0): 0.84 *
  Lysophosphatidylcholine (C20:4): 0.83 *
  Lysophosphatidylethanolamine (C22:0): 0.45 *
  Phosphatidylcholine (C18:0, C20:3): 0.47 *
  Phosphatidylcholine No 04: 0.42 *
  Sphingomyelin (d18:1, C16:0): 0.4 *
  Sphingomyelin (d18:2, C16:0): 0.24 *
  Sphingomyelin (d18:2,C18:0): 0.18 *
  Threonic acid: 0.52 *
  Tyrosine: 0.96
  beta-Sitosterol: 0.38 *
  myo-Inositol, lipid fraction: 0.29 *
m28, Table 14b
  Cholesterol: 0.39
  Choline plasmalogen No 02: 0.55
  Lignoceric acid (C24:0): 0.43
  Sphingomyelin (d18:1, C16:0): 0.44
  Sphingomyelin (d18:2, C16:0): 0.34
  erythro-Sphingosine (d18:1): 0.24
m28, Table 12d
  3,4-Dihydroxyphenylacetic acid (DOPAC): 0.96
  Choline plasmalogen No 02: 0.55 *
  Choline plasmalogen No 03: 0.48 *
  Coenzyme Q10: 0.37 *
  Elaidic acid (C18:trans[9]1): 0.48 *
  Glycerol phosphate, lipid fraction: 0.29 *
  Glycerol, polar fraction: 0.63 *
  Lysophosphatidylcholine (C17:0): 0.67 *
  Lysophosphatidylcholine (C18:0): 0.89 *
  Lysophosphatidylcholine (C20:4): 0.88 *
  Lysophosphatidylethanolamine (C22:0): 0.54 *
  Phosphatidylcholine (C18:0, C20:3): 0.79 *
  Phosphatidylcholine No 04: 0.64 *
  Sphingomyelin (d18:1, C16:0): 0.65 *
  Sphingomyelin (d18:2, C16:0): 0.34 *
  Sphingomyelin (d18:2,C18:0): 0.41 *
  Threonic acid: 0.54 *
  Tyrosine: 0.83 *
  beta-Sitosterol: 0.7 *
  myo-Inositol, lipid fraction: 0.53 *

## CCNC(=O)[C@@H]1CCCN1C(=O)[C@H](CCCNC(=N)N)NC(=O)[C@H](CC(C)C)NC(=O)[C@@H](COC(C)(C)C)NC(=O)[C@H](Cc1ccc(O)cc1)NC(=O)[C@H](CO)NC(=O)[C@H](Cc1c[nH]c2ccccc12)NC(=O)[C@H](Cc1cnc[nH]1)NC(=O)[C@@H]1CCC(=O)N1 [Buserelin acetate a.c., Buserelin acetate]
Day 7
  Alanine, ratio versus control: 0.67 *
  Androstenedione, ratio versus control: 0.17 *
  Cholesterol, ratio versus control: 0.9 *
  Glycine, ratio versus control: 0.83 *
  Heptadecanoic acid (C17:0), ratio versus control: 0.81 *
  Testosterone, ratio versus control: 0.11 *
  Threonine, ratio versus control: 1.01 *
  Uric acid, ratio versus control: 0.59 *
  alpha-Tocopherol, ratio versus control: 0.88 *
Day 14
  Alanine, ratio versus control: 0.74 *
  Androstenedione, ratio versus control: 0.5 *
  Cholesterol, ratio versus control: 0.84 *
  Glycine, ratio versus control: 0.91^
  Heptadecanoic acid (C17:0), ratio versus control: 0.94 *
  Testosterone, ratio versus control: 0.19 *
  Threonine, ratio versus control: 0.92 *
  Uric acid, ratio versus control: 076 *
  alpha-Tocopherol, ratio versus control: 0.93 *
Day 28
  Alanine, ratio versus control: 0.78^
  Androstenedione, ratio versus control: 0.35 *
  Cholesterol, ratio versus control: 0.91^
  Glycine, ratio versus control: 0.91 *
  Heptadecanoic acid (C17:0), ratio versus control: 0.91 *
  Testosterone, ratio versus control: 0.08 *
  Threonine, ratio versus control: 1.01^
  Uric acid, ratio versus control: 0.85 *
  alpha-Tocopherol, ratio versus control: 1.03^
